Experimental data: US11919918B2, “P2X3 andor P2X2/3 receptor antagonist, pharmaceutical composition comprising same, and use thereof” (BEIJING TIDE PHARMACEUTICAL CO., LTD., priority 2017, dated 2024)

Experiments:
human P2X3 receptor = human P2X3 receptor (Homo sapiens (Human), UniProt P56373); assay: Inhibitory activity on human P2X3 receptor (calcium 6 dye FLIPR assay, agonist α,β-MeATP); assay type: cell-based; details: HEK293-P2X3 stably expressing cell line, FLIPR Tetra
Description: (§1) Biological Assay: Determination of the Inhibitory Activity of the Compounds on Human P2X3 and P2X2/3 Receptors
(§2) Cells were seeded into a poly-D-lysine-coated 384-well cell culture plate (Corning) at a density of 11,000 cells/well/25 μL of cell inoculation medium, and were cultured in a cell incubator overnight. On the day of the test, the calcium 6 dye was diluted to a 2× concentration with a assay buffer, 25 μL of the 2× calcium 6 dye was added to the 384-well cell culture plate, which was incubated at 37° C. for 2 hours, and then placed at room temperature for further use. The test compound and the agonist, α,β-MeATP were diluted to a 7× concentration with the assay buffer, 10 μL of the 7× test compound was added to the 384-well cell culture plate, which was incubated at room temperature for 15 minutes, and 10 μL of the 7× α,β-MeATP was transferred into the 384-well cell culture plate. The data were measured and analyzed using FLIPR Tetra, and the half inhibitory concentration (IC50) of the test compound on P2X3 and P2X2/3 receptors was calculated with the GraphPad Prism four-parameter equation.
(§3) Cell lines: human embryonic kidney cells HEK293-P2X3 and HEK293-P2X2/3 stably expressing cell lines;
(§4) Complete cell culture medium: DMEM High Glucose (Life Technology), which contained 10% fetal bovine serum, 4 mM GlutaMAX, 1% penicillin-streptomycin, and 350 μg/mL G418;
(§5) Cell inoculation medium: DMEM High Glucose (Life Technology), which contained 2% fetal bovine serum, and 4 mM GlutaMAX;
(§6) Cell culture conditions: 37° C., 5% CO2;
(§7) Assay buffer: HBSS (containing calcium and magnesium ions), which contained 20 mM HEPES;
(§8) Detection equipment: FLIPR Tetra (Molecular Devices);

human P2X2/3 receptor = human P2X2/3 receptor (Homo sapiens (Human), UniProt P56373+Q9UBL9); assay: Inhibitory activity on human P2X2/3 receptor (calcium 6 dye FLIPR assay, agonist α,β-MeATP); assay type: cell-based; details: HEK293-P2X2/3 stably expressing cell line, FLIPR Tetra
human P2X2/3 receptor, sequence (Q9UBL9 whole entry): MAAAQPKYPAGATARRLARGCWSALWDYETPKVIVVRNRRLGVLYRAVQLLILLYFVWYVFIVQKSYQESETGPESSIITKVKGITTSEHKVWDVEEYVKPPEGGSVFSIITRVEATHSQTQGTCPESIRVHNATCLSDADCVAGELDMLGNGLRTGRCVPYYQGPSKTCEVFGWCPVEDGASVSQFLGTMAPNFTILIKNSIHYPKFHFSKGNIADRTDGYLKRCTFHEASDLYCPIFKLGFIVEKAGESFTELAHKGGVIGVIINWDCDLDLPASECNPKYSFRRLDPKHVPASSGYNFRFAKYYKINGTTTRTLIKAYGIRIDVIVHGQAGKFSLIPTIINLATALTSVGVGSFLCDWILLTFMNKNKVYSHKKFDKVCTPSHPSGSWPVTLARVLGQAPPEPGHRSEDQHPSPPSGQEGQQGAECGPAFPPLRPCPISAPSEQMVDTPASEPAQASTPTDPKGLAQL
human P2X2/3 receptor, sequence (P56373 whole entry): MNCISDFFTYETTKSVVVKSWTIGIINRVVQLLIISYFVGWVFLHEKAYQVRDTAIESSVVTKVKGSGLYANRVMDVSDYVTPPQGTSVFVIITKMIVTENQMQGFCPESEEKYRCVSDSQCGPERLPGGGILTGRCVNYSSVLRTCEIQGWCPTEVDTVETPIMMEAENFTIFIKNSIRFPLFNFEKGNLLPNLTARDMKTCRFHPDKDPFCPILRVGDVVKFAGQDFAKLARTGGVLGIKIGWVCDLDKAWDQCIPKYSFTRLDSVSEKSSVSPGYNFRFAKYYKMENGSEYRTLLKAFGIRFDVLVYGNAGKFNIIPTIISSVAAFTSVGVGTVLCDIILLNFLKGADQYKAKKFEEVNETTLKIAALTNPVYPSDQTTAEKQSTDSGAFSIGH
Description: as §1, §2, §3, §4, §5, §6, §7, §8

human P2X3 receptor, sequence (P56373 whole entry): as above

IC50 (human P2X3 receptor)	IC50 (human P2X2/3 receptor)	Structure (SMILES)
348 nM	–	CC(C)c1cnc(S(N)(=O)=O)cc1Oc1cnc(N)nc1N [Compound C6, 4-((2,4-diaminopyrimidin-5-yl)oxy)-5-isopropylpyridine-2-sulfonamide]
73.6 nM	56.7 nM	CC(C)c1cnc(I)cc1Oc1cnc(N)nc1N [Compound C12, 5-((2-iodo-5-isopropylpyridin-4-yl)oxy)pyrimidine-2,4-diamine]
355 nM	599 nM	CC(C)c1cnc(-c2ccccc2)cc1Oc1cnc(N)nc1N [Compound C13]
131 nM	200 nM	CC(C)c1cnc(N)cc1Oc1cnc(N)nc1N [Compound C21, 5-((2-amino-5-isopropylpyridin-4-yl)oxy)pyrimidine-2,4-diamine]
365 nM	644 nM	CC(C)c1cnc(N(C)C)cc1Oc1cnc(N)nc1N [Compound C23, 5-((2-(dimethylamino)-5-isopropylpyridin-4-yl)oxy)pyrimidine-2,4-diamine]
238 nM	262 nM	COc1cc(Oc2cnc(N)nc2N)c(C2CC2)cn1 [Compound C33, 5-((5-cyclopropyl-2-methoxypyridin-4-yl)oxy) pyrimidine-2,4-diamine]
1170 nM	–	CC(C)c1cnc(-c2cn[nH]c2)cc1Oc1cnc(N)nc1N [Compound C35, 5-((5-isopropyl-2-(1H-pyrazol-4-yl)pyridin-4-yl)oxy)pyrimidine-2,4-diamine]
116 nM	423 nM	C=C(C)c1cc(Oc2cnc(N)nc2N)c(C(C)C)cn1 [Compound C44]
85 nM	154 nM	C#Cc1cc(Oc2cnc(N)nc2N)c(C(C)C)cn1 [Compound C66, 5-((2-ethynyl-5-isopropylpyridin-4-yl)oxy)pyrimidine-2,4-diamine]
78 nM	205 nM	CC(C)c1cnc(Br)cc1Sc1cnc(N)nc1N [Compound C85, 5-((2-bromo-5-isopropylpyridin-4-yl)thio)pyrimidine-2,4-diamine]
133 nM	122 nM	C#Cc1cc(Sc2cnc(N)nc2N)c(C(C)C)cn1 [Compound C88, 5-((2-ethynyl-5-isopropyl-pyrdin-4-yl)thio) pyrimidine-2,4-diamine]
227 nM	271 nM	CSc1cc(Sc2cnc(N)nc2N)c(C(C)C)cn1 [Compound C91, 5-((5-isopropyl2-(methylthio)pyridin-4-yl)thio) pyrimidine-2,4-diamine]
109 nM	222 nM	Cc1cc(Sc2cnc(N)nc2N)c(C(C)C)cn1 [Compound C92, 5-((5-isopropyl-2-methylpyridin-4-yl)thio) pyrimidine-2,4-diamine]
492 nM	–	CC(C)Nc1cc(Oc2cnc(N)nc2N)c(C(C)C)cn1 [Compound C120, 5-((5-isopropyl-2-(isopropylamino)pyridin-4-yl)oxy)pyrimidine-2,4-diamine]
377 nM	–	CC(C)c1cnc(C(N)=O)cc1Oc1cnc(N)nc1N [Compound C129, 4-((2,4-diamino-pyrimidin-5-yl)oxy)-5-isopropyl-picolinamide]
635 nM	–	CC(C)c1cnc(/C=C/c2ccccc2)cc1Oc1cnc(N)nc1N [Compound C138, (E)-5-((5-isopropyl-2-styrylpyridin-4-yl)oxy) pyrimidine-2,4-diamine]
670 nM	–	CC(C)c1cnc(Br)cc1Oc1cnc(N)nc1N[C@H](C)C1CC1 [Compound C182, (R)-5-((2-bromo-5-isopropylpyridin-4-yl)oxy)-N^4-(1-cyclopro-pylethyl) pyrimidine-2,4-diamine]

More lines, now with the values behind:

Structure (SMILES)	IC50 (human P2X3 receptor)	IC50 (human P2X2/3 receptor)
CC(C)c1c[n+]([O-])c(Br)cc1Oc1cnc(N)nc1N [C1]	746 nM	–
CC(C)c1cnc(Cl)cc1Sc1cnc(N)nc1N [C84]	536 nM	742 nM
C=C(C)c1cnc(NC)cc1Oc1cnc(N)nc1N [C192]	53 nM	69 nM
CNc1ncc(Oc2cc(Br)ncc2C(C)C)c(NC)n1 [C227]	948 nM	–
CC(C)c1cnc(Cl)cc1Oc1cnc(N)nc1N [Compound C3, 5-((2-chloro-5-isopropylpyridin-4-yl)oxy)pyrimidine-2,4-diamine]	205 nM	341 nM
COc1cc(Oc2cnc(N)nc2N)c(C(C)C)cn1 [Compound C4, 5-((5-isopropyl-2-methoxypyridin-4-yl)oxy)pyrimidine-2,4-diamine]	102 nM	158 nM
CCc1cc(Oc2cnc(N)nc2N)c(C(C)C)cn1 [Compound C15, 5-((2-ethyl-5-isopropylpyridin-4-yl)oxy)pyrimidine-2,4-diamine]	307 nM	793 nM
CC(C)c1cc(Oc2cnc(N)nc2N)c(C(C)C)cn1 [Compound C16, 5-((2,5-diisopropylpyridin-4-yl)oxy)pyrimidine-2,4-diamine]	802 nM	–
CSc1cc(Oc2cnc(N)nc2N)c(C(C)C)cn1 [Compound C20, 5-((5-isopropyl-2-(methylthio)pyridin-4-yl)oxy)pyrimidine-2,4-diamine]	44.4 nM	75.7 nM
CNc1cc(Oc2cnc(N)nc2N)c(C(C)C)cn1 [Compound C22, 5-((5-isopropyl-2-(methylamino)pyridin-4-yl)oxy)pyrimidine-2,4-diamine]	37 nM	57 nM
CC(C)c1cnc(-n2cccc2)cc1Oc1cnc(N)nc1N [Compound C38, 5-((5-isopropyl-2-(1H-pyrrol-1-yl)pyridin-4-yl)oxy)pyrimidine-2,4-diamine]	787 nM	–
CC(C)c1cnc(-c2ccco2)cc1Oc1cnc(N)nc1N [Compound C39, 5-((2-(furan-2-yl)-5-isopropylpyridin-4-yl)oxy)pyrimidine-2,4-diamine]	166 nM	243 nM
C=Cc1cc(Oc2cnc(N)nc2N)c(C(C)C)cn1 [Compound C43]	55 nM	180 nM
C=C(OCC)c1cc(Oc2cnc(N)nc2N)c(C(C)C)cn1 [Compound C45, 5-((2-(1-ethoxyvinyl)-5-isopropylpyridin-4-yl)oxy)pyrimidine-2,4-diamine]	435 nM	–
CC(C)c1cnc(C2CC2)cc1Oc1cnc(N)nc1N [Compound C52, 5-((2-cyclopropyl-5-isopropylpyridin-4-yl)oxy)pyrimidine-2,4-diamine]	147 nM	589 nM
CCN(C)c1cc(Oc2cnc(N)nc2N)c(C(C)C)cn1 [Compound C61, 5-((2-(ethyl(methyl)amino)-5-isopropylpyridin-4-yl)oxy)pyrimidine-2,4-diamine]	274 nM	592 nM
CC(C)c1cnc(N(C)C2CC2)cc1Oc1cnc(N)nc1N [Compound C65, 5-((2-(cyclopropyl (methyl)amino)-5-isopropylpyridin-4-yl)oxy) pyrimidine-2,4-diamine]	334 nM	506 nM
CC(C)c1cnc(C(F)(F)F)cc1Oc1cnc(N)nc1N [Compound C67, 5-((5-isopropyl-2-(trifluoromethyl)pyridin-4-yl)oxy)pyrimidine-2,4-diamine]	490 nM	–
CC(C)c1cnc(Br)cc1Oc1cnc(N)nc1NCCN(C)C [Compound C71, 5-((2-bromo-5-isopropylpyridin-4-yl)oxy)-N^4-(2-(dimethylamino)ethyl)pyrimidine-2,4-diamine]	72 nM	67 nM
CSc1cc(Oc2cnc(N)nc2NCCN(C)C)c(C(C)C)cn1 [Compound C72, N^4-(2-(dimethylamino)ethyl)-5-((5-isopropyl-2-(methylthio)pyridin-4-yl)oxy)pyrimidine-2,4-diamine]	127 nM	89 nM
C=Cc1cc(Sc2cnc(N)nc2N)c(C(C)C)cn1 [Compound C95, 5-((5-isopropyl-2-vinylpyridine-4-yl)thio)pyrimidine-2,4-diamine]	138 nM	163 nM
COc1cc(Oc2cnc(N)nc2N)c(Br)cn1 [Compound C124, 5-((5-bromo-2-methoxypyridin-4-yl)oxy)pyrimidine-2,4-diamine]	1240 nM	–
CCSc1cc(Sc2cnc(N)nc2N)c(C(C)C)cn1 [Compound C125, 5-((2-(ethylthio)-5-isopropyl-pyridin-4-yl)thio) pyrimidine-2,4-diamine]	731 nM	–
CC(C)c1cnc(CC(=O)c2ccc(N(C)C)cc2)cc1Oc1cnc(N)nc1N [Compound C155]	926 nM	–
CC(C)c1cnc(C#Cc2cnc3cccnn23)cc1Oc1cnc(N)nc1N [Compound C195, 5-((2-(imidazo[1,2-b]pyridazin-3-ylethynyl)-5-isopropylpyridin-4-yl)oxy)pyrimidine-2,4-diamine]	316 nM	–
CC(C)c1cnc(NCCO)cc1Oc1cnc(NCCO)nc1N [Compound C242, 2-((4-((4-amino-2-((2-hydroxyethyl)amino)pyrimidin-5-yl)oxy)-5-isopropyl-pyridin-2-yl)amino)ethanol]	744 nM	–
